43 compounds from patent US9932349B2 (priority 2000, dated 2018) can be followed below.

Like-named read-outs stand apart in the source and are kept apart here.

The target of one assay is T1, δ opioid receptor (Cavia porcellus, UniProt A0A286XTF2).
T1 construct: determined in guinea pig brain cells; from tissue; host or cells: guinea pig brain
The assay can be described thus: biochemical. In kind it is binding, guinea pig.

The next assay has as its target T2, κ opioid receptor (Cavia porcellus, UniProt P41144).
T2 construct: determined in guinea pig brain cells; from tissue; host or cells: guinea pig brain
The assay can be described thus: biochemical. In kind it is binding, guinea pig.

The target in the next assay is T3, human μ opioid receptor (Homo sapiens, UniProt P35372).
T3 construct: expressed in transfected cells; host or cells: Chinese hamster ovary (CHO) cells
T3 sequence (P35372 whole entry): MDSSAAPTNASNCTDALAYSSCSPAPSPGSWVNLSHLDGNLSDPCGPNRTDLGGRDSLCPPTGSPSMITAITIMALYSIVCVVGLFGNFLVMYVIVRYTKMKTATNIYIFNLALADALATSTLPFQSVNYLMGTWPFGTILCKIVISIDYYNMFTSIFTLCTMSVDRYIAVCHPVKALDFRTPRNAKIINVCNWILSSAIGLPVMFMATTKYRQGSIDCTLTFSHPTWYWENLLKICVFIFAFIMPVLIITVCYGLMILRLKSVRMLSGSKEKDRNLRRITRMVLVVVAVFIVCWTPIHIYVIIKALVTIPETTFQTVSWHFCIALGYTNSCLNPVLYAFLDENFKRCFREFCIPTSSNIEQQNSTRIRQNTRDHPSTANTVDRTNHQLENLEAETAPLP
Briefly: biochemical. Format: binding.

For another assay, the target named is T4, human δ opioid receptor (Homo sapiens, UniProt P41143).
T4 construct: expressed in transfected cells; host or cells: Chinese hamster ovary (CHO) cells
T4 sequence (P41143 whole entry): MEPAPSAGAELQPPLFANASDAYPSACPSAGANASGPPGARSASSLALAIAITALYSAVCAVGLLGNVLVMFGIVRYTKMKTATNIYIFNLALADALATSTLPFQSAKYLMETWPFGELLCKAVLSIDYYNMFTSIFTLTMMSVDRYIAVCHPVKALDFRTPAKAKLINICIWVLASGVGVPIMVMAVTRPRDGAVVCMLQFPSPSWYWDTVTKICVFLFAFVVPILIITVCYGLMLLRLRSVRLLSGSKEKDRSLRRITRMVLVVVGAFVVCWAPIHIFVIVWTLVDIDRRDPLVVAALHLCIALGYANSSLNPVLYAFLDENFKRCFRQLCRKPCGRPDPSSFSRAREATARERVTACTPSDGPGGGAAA
Briefly: binding to cloned human receptor in CHO cell membranes, [3H]Naltrindole. On the procedure:
The affinities of the compounds of the invention were determined in guinea pig brain cells by the method described in Wentland et al. Biorgan. Med. Chem. Lett. 9. […] CHO cell membranes, expressing the human μ, δ, or κ opioid receptor, were incubated with 12 different concentrations of the compounds in the presence of receptor-specific radioligands at 25° C., in a final volume of 1 ml of 50 mM Tris-HCl, pH 7.5. Nonspecific binding was determined using 1 μM naloxone. Data are the mean value ±S.E.M. from three experiments, performed in triplicate.

A further assay has as its target T5, human κ opioid receptor (Homo sapiens, UniProt P41145).
T5 construct: expressed in transfected cells; host or cells: Chinese hamster ovary (CHO) cells
The assay can be described thus: biochemical. In kind it is binding.

T1 sequence (A0A286XTF2 1-366): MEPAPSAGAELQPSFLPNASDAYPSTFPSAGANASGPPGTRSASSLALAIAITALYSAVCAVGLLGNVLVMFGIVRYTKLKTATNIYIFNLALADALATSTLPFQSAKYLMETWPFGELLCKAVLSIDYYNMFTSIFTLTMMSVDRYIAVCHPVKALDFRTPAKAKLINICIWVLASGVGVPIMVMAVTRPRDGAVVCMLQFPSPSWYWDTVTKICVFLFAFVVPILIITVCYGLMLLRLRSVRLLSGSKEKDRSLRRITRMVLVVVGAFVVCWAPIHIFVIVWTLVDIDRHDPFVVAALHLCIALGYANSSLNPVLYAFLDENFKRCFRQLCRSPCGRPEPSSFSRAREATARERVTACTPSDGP
T5 sequence (P41145 whole entry): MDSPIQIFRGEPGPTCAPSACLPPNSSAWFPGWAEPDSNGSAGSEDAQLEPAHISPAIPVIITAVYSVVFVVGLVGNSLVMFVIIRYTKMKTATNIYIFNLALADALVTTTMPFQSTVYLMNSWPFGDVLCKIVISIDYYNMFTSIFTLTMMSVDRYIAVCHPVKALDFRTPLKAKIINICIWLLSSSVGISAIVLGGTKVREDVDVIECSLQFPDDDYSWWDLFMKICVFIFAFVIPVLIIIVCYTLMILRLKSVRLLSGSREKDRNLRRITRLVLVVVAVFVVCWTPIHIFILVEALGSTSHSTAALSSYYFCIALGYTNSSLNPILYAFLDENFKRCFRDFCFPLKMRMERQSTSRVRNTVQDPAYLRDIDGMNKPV
T2 sequence (P41144 whole entry): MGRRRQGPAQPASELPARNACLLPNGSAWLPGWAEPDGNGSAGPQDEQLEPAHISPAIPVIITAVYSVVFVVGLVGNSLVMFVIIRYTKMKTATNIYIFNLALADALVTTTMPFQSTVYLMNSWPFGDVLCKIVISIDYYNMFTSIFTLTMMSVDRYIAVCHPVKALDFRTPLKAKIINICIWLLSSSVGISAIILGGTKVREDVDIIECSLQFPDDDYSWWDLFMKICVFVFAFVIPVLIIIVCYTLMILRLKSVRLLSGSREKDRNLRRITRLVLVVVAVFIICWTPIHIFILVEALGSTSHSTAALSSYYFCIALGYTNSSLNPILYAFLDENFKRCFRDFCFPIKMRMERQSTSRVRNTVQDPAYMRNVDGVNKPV

On to `CC1C2Cc3ccc(CN)cc3C1(C)CCN2CC1CC1` (mixture of isomers) [Example 15, (±)-[3-(Cyclopropylmethyl)-1,2,3,4,5,6,-hexahydro-cis-6,11-dimethyl-2,6-methano-3-benzazocin-8-yl]-methylamine], for which the Ki was determined as 390 ± 47 nM on δ opioid receptor (Ki [3H] Naltrindole (δ)) and 17 ± 2.9 nM on κ opioid receptor (Ki [3H] U69,593 (κ)).
On to `CC1C2Cc3ccc(NC=O)cc3C1(C)CCN2CC1CC1` (mixture of isomers) [Example 19, (±)-N-[3-(Cyclopropylmethyl)-1,2,3,4,5,6,-hexahydro-cis-6,11-dimethyl-2,6-methano-3-benzazocin-8-yl]-formamide], for which the Ki stood at 37 ± 3.9 nM on δ opioid receptor (read-out: Ki [3H] Naltrindole (δ)) and 0.85 ± 0.08 nM on κ opioid receptor (read-out: Ki [3H] U69,593 (κ)).
The compound `CC[C@@]12CCN(CC3CC3)C(C(=O)c3ccc(O)cc31)C2C` (mixture of isomers) [(±)-EKC, Ethylketocyclazocine, reference compound] displayed a Ki at δ opioid receptor ([3H] Naltrindole (δ)) of 3.4 ± 0.41 nM.
Turning to `CC1C2C(=O)c3ccc(O)cc3[C@@]1(C)CCN2CC1CC1` (mixture of isomers) [(±)-ketocyclazocine, Ketocyclazocine, reference compound], the Ki came to 20 ± 2.7 nM on δ opioid receptor ([3H] Naltrindole (δ)); 1 ± 0.24 nM at κ opioid receptor ([3H] U69,593 (κ)); 1.7 ± 0.21 nM on human μ opioid receptor; 130 ± 14 nM on human δ opioid receptor; 1 ± 0.019 nM on human κ opioid receptor.
For the compound `C[C@H]1C2Cc3ccc(C#N)cc3[C@@]1(C)CCN2CC1CC1` (racemic) [Example 1, (±)-3-(Cyclopropylmethyl)-1,2,3,4,5,6-hexahydro-cis-6,11-dimethyl-2,6-methano-3-benzazocin-8-carbonitrile], the values for the Ki on δ opioid receptor (Ki [3H] Naltrindole (δ)) and at κ opioid receptor (Ki [3H] U69,593 (κ)) were 2700 ± 1400 nM and 71 ± 13 nM, respectively.
In the same order, the values of `C[C@H]1[C@H]2Cc3ccc(C(=O)O)cc3[C@]1(C)CCN2CC1CC1` (racemic) [Example 2] are 320 ± 14 nM and 31 ± 0.87 nM.
In the same order, the values of `COC(=O)c1ccc2c(c1)[C@@]1(C)CCN(CC3CC3)C(C2)[C@@H]1C` (racemic) [Example 3, (±)-3-(Cyclopropylmethyl)-1,2,3,4,5,6,-hexahydro-cis-6,11-dimethyl-2,6-methano-3-benzazocin-8-carboxylic acid methyl ester] are 59 ± 2.1 nM and 2 ± 0.21 nM.
In the same order, the values of `C[C@H]1C2Cc3ccc(C(N)=S)cc3[C@@]1(C)CCN2CC1CC1` (racemic) [Example 5, (±)-3-(Cyclopropylmethyl)-1,2,3,4,5,6-hexahydro-cis-6,11-dimethyl-2,6-methano-3-benzazocin-8-thiocarboxamide] are 4 ± 0.48 nM and 0.67 ± 0.01 nM.
Consider `C[C@H]1[C@H]2Cc3ccc(C(=O)NO)cc3[C@]1(C)CCN2CC1CC1` (racemic) [Example 6], for which the Ki was determined as 210 ± 40 nM at δ opioid receptor (Ki [3H] Naltrindole (δ)) and 6.9 ± 0.61 nM on κ opioid receptor (Ki [3H] U69,593 (κ)).
In the same order, the values of `COc1ccc(CNC(=O)c2ccc3c(c2)[C@]2(C)CCN(CC4CC4)[C@H](C3)[C@@H]2C)cc1` (racemic) [Example 10] are 150 ± 17 nM and 110 ± 3.1 nM.
In the same order, the values of `C[C@H]1[C@H]2Cc3ccc(C(=O)NCCCN(C)C)cc3[C@]1(C)CCN2CC1CC1` (racemic) [Example 12] are 3000 ± 230 nM and 310 ± 64 nM.
In the same order, the values of `CC1[C@@H]2Cc3ccc(C(=N)NO)cc3[C@@]1(C)CCN2CC1CC1` (mixture of isomers) [Example 14, (±)-3-(Cyclopropylmethyl)-1,2,3,4,5,6-hexahydro-N-hydroxy-cis-6,11-dimethyl-2,6-methano-3-benzazocin-8-carboxamidine] are 16 ± 0.67 nM and 0.9 ± 0.15 nM.
Take `C[C@H]1C2Cc3ccc(CO)cc3[C@@]1(C)CCN2CC1CC1` (racemic) [Example 16, (±)-[3-(Cyclopropylmethyl)-1,2,3,4,5,6,-hexahydro-cis-6,11-dimethyl-2,6-methano-3-benzazocin-8-yl]-methanol]: the Ki is 210 ± 29 nM at δ opioid receptor (Ki [3H] Naltrindole (δ)) and 7.6 ± 0.8 nM at κ opioid receptor (Ki [3H] U69,593 (κ)).
For the compound `C[C@H]1[C@H]2Cc3ccc(NS(C)(=O)=O)cc3[C@]1(C)CCN2CC1CC1` (racemic) [Example 21], the Ki is 780 ± 170 nM at δ opioid receptor (Ki [3H] Naltrindole (δ)) and 21 ± 1.5 nM at κ opioid receptor (Ki [3H] U69,593 (κ)).
For the compound `CC1C2Cc3ccc(NC(N)=S)cc3C1(C)CCN2CC1CC1` (racemic) [Example 37], the Ki on human μ opioid receptor (read-out: Ki [3H] DAMGO (μ)) was 10 ± 1.7 nM; on human δ opioid receptor (read-out: Ki [3H] Naltrindole (δ), Table 1, footnote a: chinese hamster ovary rather than guinea pig brain), 440 ± 72 nM; on human κ opioid receptor (read-out: Ki [3H] U69,593 (κ)) it was 4 ± 0.54 nM.
For `C[C@H]1[C@H]2C(=O)c3ccc(C(N)=O)cc3[C@]1(C)CCN2CC1CC1` (relative stereo) [Example 23], the Ki at δ opioid receptor ([3H] Naltrindole (δ)) is 20 ± 2.3 nM; at κ opioid receptor ([3H] U69,593 (κ)) it was 1.8 ± 0.1 nM.
`CC1C2Cc3ccc(C(N)=O)cc3C1(C)CCN2CC1CC1` (single isomer, unassigned) [Example 4a] registered a Ki at δ opioid receptor (Ki [3H] Naltrindole (δ)) of 2.6 ± 0.6 nM.
On the same count and under the same terms, with `CC1C2Cc3ccc(C(N)=O)cc3C1(C)CCN2CC1CC1` (single isomer, unassigned) [Example 4b] the figure was 570 ± 50 nM.
With `CC1C2Cc3ccc(NC=O)cc3C1(C)CCN2CC1CC1` (single isomer, unassigned) [Example 19a], the results for the Ki at δ opioid receptor (Ki [3H] Naltrindole (δ)) and on κ opioid receptor (Ki [3H] U69,593 (κ)) were 9.8 ± 0.28 nM and 0.49 ± 0.012 nM, respectively.
In the same order, the values of `CC1C2Cc3ccc(NC=O)cc3C1(C)CCN2CC1CC1` (single isomer, unassigned) [Example 19b] are more than 10000 nM and 900 ± 8.7 nM.
With `CC1C2Cc3ccc(O)cc3C1(C)CCN2CC1CCCO1` (single isomer, unassigned) [Example 25, reference compound], the Ki at δ opioid receptor ([3H] Naltrindole (δ)) stood at 3.6 ± 0.4 nM; on κ opioid receptor ([3H] U69,593 (κ)), 0.09 ± 0.01 nM.
In the same order, the values of `CC1C2Cc3ccc(C(N)=O)cc3C1(C)CCN2CC1CCCO1` (single isomer, unassigned) [Example 26] are 2 ± 0.15 nM and 0.089 ± 0.004 nM.
In the same order, the values of `CC1C2Cc3ccc(O)cc3C1(C)CCN2CC1CCCO1` (single isomer, unassigned) [Example 27, reference compound] are 67 ± 4.3 nM and 1.5 ± 0.07 nM.
In the same order, the values of `CC1C2Cc3ccc(C(N)=O)cc3C1(C)CCN2CC1CCCO1` (single isomer, unassigned) [Example 28] are 34 ± 0.1 nM and 2.8 ± 0.24 nM.
On to `C[C@H]1[C@H]2Cc3ccc(O)cc3[C@]1(C)CCN2CC1CC1` [(+)-Cyclazocine, Cyclazocine, reference compound], for which the Ki on δ opioid receptor (read-out: [3H] Naltrindole (δ)) was 1100 ± 63 nM; at κ opioid receptor (read-out: [3H]U69,593 (κ)), 76 ± 8.2 nM.
In the same order, the values of `C[C@H]1[C@H]2Cc3ccc(O)cc3[C@]1(C)CCN2CC1CC1` [(−)-Cyclazocine, Cyclazocine, reference compound] are 0.58 ± 0.06 nM and 0.052 ± 0.009 nM.
Consider `CC1C2Cc3ccc(C(=O)NN)cc3C1(C)CCN2CC1CC1` (stereo not shown) [Example 7], for which the Ki on κ opioid receptor (Ki [3H] U69,593 (κ)) worked out at 19 ± 1.4 nM.
As for `CNC(=O)c1ccc2c(c1)C1(C)CCN(CC3CC3)C(C2)C1C` (stereo not shown) [Example 8], the Ki at δ opioid receptor (Ki [3H] Naltrindole (δ)) amounted to 63 ± 4.1 nM; at κ opioid receptor (Ki [3H] U69,593 (κ)), 2.6 ± 0.19 nM.
In the same order, the values of `CC1C2Cc3ccc(C(=O)NCc4ccccc4)cc3C1(C)CCN2CC1CC1` (stereo not shown) [Example 9] are 140 ± 18 nM and 78 ± 7.6 nM.
As for `CC1C2Cc3ccc(C(=O)NCCN(C)C)cc3C1(C)CCN2CC1CC1` (stereo not shown) [Example 11], the Ki at δ opioid receptor (Ki [3H] Naltrindole (δ)) turned out to be 350 ± 51 nM; on κ opioid receptor (Ki [3H] U69,593 (κ)), 44 ± 11 nM.
Turning to `CC1C2Cc3ccc(C4=NCCN4)cc3C1(C)CCN2CC1CC1` (stereo not shown) [Example 13], the Ki came out at 55 ± 5.1 nM on δ opioid receptor (Ki [3H] Naltrindole (δ)) and 11 ± 0.69 nM on κ opioid receptor (Ki [3H] U69,593 (κ)).
In the same order, the values of `CC1C2Cc3ccc(C(=O)c4ccccc4)cc3C1(C)CCN2CC1CC1` (stereo not shown) [Example 17] are 490 ± 43 nM and 19 ± 2.6 nM.
In the same order, the values of `CC1C2Cc3ccc(C(=NO)c4ccccc4)cc3C1(C)CCN2CC1CC1` (stereo not shown) [Example 18] are 180 ± 15 nM and 7.2 ± 0.4 nM.
In the same order, the values of `CC1C2Cc3ccc(NC=S)cc3C1(C)CCN2CC1CC1` (stereo not shown) [Example 20] are 16 ± 0.3 nM and 0.63 ± 0.15 nM.
Turning to `CC1C2C(=O)c3ccc(C#N)cc3C1(C)CCN2CC1CC1` (stereo not shown) [Example 22], the Ki was 3400 ± 410 nM on δ opioid receptor ([3H] Naltrindole (δ)) and 59 ± 0.77 nM on κ opioid receptor ([3H] U69,593 (κ)).
As to `CCC12CCN(CC3CC3)C(C(=O)c3ccc(C(N)=O)cc31)C2C` (stereo not shown) [Example 24], the Ki at δ opioid receptor (read-out: [3H] Naltrindole (δ)) turned out to be 9.8 ± 0.5 nM; on κ opioid receptor (read-out: [3H] U69,593 (κ)), 0.7 ± 0.08 nM.
`C[C@H]1[C@H]2Cc3ccc(CN)cc3[C@]1(C)CCN2C[C@@H]1CCCO1` [Example 29]: the Ki at δ opioid receptor ([3H] Naltrindole (δ)) was 300 ± 27 nM; on κ opioid receptor ([3H] U69,593 (κ)) it was 18 ± 1.9 nM.
As for `CC1C2Cc3ccc(CC#N)cc3C1(C)CCN2CC1CC1` (stereo not shown) [Example 38], the Ki worked out at 3.3 ± 1.5 nM at human μ opioid receptor, 2000 ± 685 nM at human δ opioid receptor and 2.9 ± 0.36 nM at human κ opioid receptor.
Consider `CC1C2Cc3ccc(C=NO)cc3C1(C)CCN2CC1CC1` (stereo not shown) [Example 39], for which the results for the Ki at human μ opioid receptor, on human δ opioid receptor and on human κ opioid receptor were 18 ± 1.8 nM, 140 ± 15 nM and 0.73 ± 0.03 nM, respectively.
For the compound `CCC12CCN(CC3CC3)C(C(=O)c3ccc(NC=O)cc31)C2C` (stereo not shown) [Example 40], the Ki at δ opioid receptor (read-out: [3H] Naltrindole (δ)) worked out at 52 ± 3.4 nM; at κ opioid receptor (read-out: [3H] U69,593 (κ)) it was 1.2 ± 0.11 nM.
On to `N#Cc1ccc2c(c1O)[C@]13CCN(CC4CCC4)[C@H](C2)[C@]1(O)CCC(=O)C3` [Example 43], for which the Ki on human μ opioid receptor is 0.35 ± 0.092 nM; at human δ opioid receptor it was 82 ± 24 nM; at human κ opioid receptor, 2.6 ± 0.21 nM.
For `Oc1ccc2c(c1)C13CCCCC1(O)C(C2)N(CC1CCC1)CC3` (stereo not shown) [butorphanol, Butorphanol, reference compound], the Ki on human δ opioid receptor is 12 ± 3.8 nM; on human κ opioid receptor, 0.22 ± 0.023 nM.
The compound `Oc1ccc2c3c1O[C@H]1c4[nH]c5ccccc5c4C[C@@]4(O)[C@@H](C2)N(CC2CC2)CC[C@]314` [naltrindole (3-OH), Naltrindole, reference compound] had a Ki at κ opioid receptor ([3H] U69,593 (κ)) of 4.6 ± 0.23 nM.
